Reference: US20200270309A1, “MALEIMIDE GROUP-MODIFIED ANGIOGENESIS INHIBITOR HM-1 AND USE THEREOF” (NANJING ANJI BIOLOGICAL TECHNOLOGY CO., LTD, priority 2017, published 2020)
Marks after values point to notes of the source that are not given here. Peptide text beside a SMILES is read from it. * marks the point of attachment. X58 = O=C1C=CC(=O)N1c1cccc(CCCCCCCCCCCC(=O)*)c1; X60 = O=C1C=CC(=O)N1c1ccccc1CCCCCCCCCC(=O)*; X66 = O=C1C=CC(=O)N1c1cccc(CCCCCCCC(=O)*)c1; X71 = O=C1C=CC(=O)N1c1cccc(CCCCCC(=O)*)c1; X75 = O=C1C=CC(=O)N1c1cccc(CC(=O)*)c1

Tests used:
[1] = system: corneal neovascularization; test: Corneal neovascularization induced by alkali burn in BALB/c mice; assay type: in vivo; parameters: Inhibition rate (corneal neovascularization): concentration or dose not given beside the values; conditions: day 14 after alkali burn, vitreous injection once a day for 1 week
[2] = system: xylene-induced ear swelling; test: Xylene-induced mouse ear swelling; assay type: in vivo; conditions: Kunming mice, injected once a day for 5 days; for Swelling degree / Swelling degree (mg): right minus left ear piece weight 2 h after xylene; for Inhibition rate (%): xylene-induced ear swelling
Protocol: Kunming mice were taken, a normal saline group was taken as a blank control group, an aspirin group (200 mg/kg) was taken as a positive control group, and X1-X90 administration groups were taken as test groups. The mice were injected once a day for 5 consecutive days. The blank control group was given an equal volume of normal saline. One hour after the last administration, 0.05 mL of xylene was applied to both sides of the right ear of each mouse to cause inflammation, while no drug was applied to the left ear as a normal ear. Two hours later, the mice were put to death by dislocation. Two ears were cut along the auricle. Ear pieces were taken with a puncher and weighed, and the swelling degree and the swelling rate were calculated. Swelling degree=right ear piece weight-left ear piece weight, swelling rate=(swelling degree/left ear piece weight)*100%. Statistical t-test was conducted on the experimental results. *P<0.05 indicates significant difference, and **P<0.01 indicates extremely significant difference.

[3] = system: IL-1β production by mouse peritoneal macrophages; test: IL-1β production by mouse peritoneal macrophages (ELISA); assay type: cell-based; conditions: for Inhibition rate: IL-1β production, vs model group; for IL-1β: mouse peritoneal macrophages, 48 h, ELISA
Protocol: Mice were injected intraperitoneally with 1 mL of broth culture medium (containing 6% of starch). Three days later, mice peritoneal macrophages were taken aseptically and washed twice with 1640 culture medium, and the cell concentration was adjusted to 2×10^6 cells/mL. The solutions were injected into 24-well culture plates at 1 mL per well. The cells were incubated in a cell incubator for 3 h and vibrated once every 30 min to make the cells fully adhere to the wall. Then, the cells were washed twice with a culture solution to remove non-adhered cells. PBS was added to the blank group, positive drug Dex was added to the positive group, no drug was added to the model group, and polypeptides X1-X90 with low, medium and high concentrations were added to the test groups; and the cells were continuously cultured for 48 h after administration, and then centrifuged at 1000 r/min for 15 min. The supernatant was collected as a sample to be tested for IL-1β activity.

HUVECs = test: Transwell migration inhibition on HUVECs; assay type: cell-based, human; conditions: for Inhibition rate (%): HUVEC migration vs blank control; for Cell migration number (Mean ± SD): HUVECs, transwell, 24 h
[4] = system: retinal vascular endothelial nuclei; test: Neovascularization in a rat model of premature retinopathy; assay type: in vivo, rats; conditions: dose 0.05 μM in the vitreous chamber from day 7 of modeling for one week; counted on day 14; oxygen-induced neonatal rats
Protocol: Using a fluctuating oxygen-induced animal model, newborn rats born naturally on the same day (within 12 h) were randomly divide into three groups: an oxygen model group, an oxygen treatment group and a normal control group. The oxygen model was further divided into three sub-group model groups, and the sub-group model groups and the treatment group were all placed in a semi-closed oxygen chamber made of organic glass; medical oxygen was introduced into the chamber, and the concentration was adjusted to 80%±2% by an oxygen meter; nitrogen was introduced into the oxygen chamber after 24 h, and the oxygen concentration was adjusted to 10%±2% rapidly and maintained for 24 h. This was repeated to keep the oxygen concentration in the oxygen chamber alternating between 80% and 10% every 24 h, the oxygen concentration was maintained for 7 d, and then the rats were fed in the air. The oxygen concentration was monitored 8 times a day, and the ambient temperature in the chamber was controlled at 23° C.±2° C. Bedding was replaced, feed was added, and water and mother rats were replaced once. The normal control group was placed in the animal room feeding environment. […] The oxygen treatment group was divided into three subgroups. On day 7 of modeling, X1-[…], […]-[…] and […]-X90 were injected in the vitreous chamber respectively, and the oxygen model group and the control group were only given normal saline for one week. On day 14, after the rats were anesthetized by diethyl ether and killed, eyeballs were extracted and fixed in 40 g/L paraformaldehyde solution for 24 h. Gradient dehydration by alcohol was performed, and the eyeballs were processed by xylene to be transparent. After waxing, the eyeballs were sectioned continuously to a thickness of 4μm, and the periphery of the optic disc should be avoided as much as possible. The sections were parallel to the sagittal plane from cornea to the optic disc. Ten sections of each eyeball were randomly taken and stained with hematoxylin eosin, the number of vascular endothelial nuclei that broke through the inner limiting membrane of the retina (only the number of vascular endothelial nuclei closely related to the inner limiting membrane were counted) was counted, and statistics of the average number of cells per section per eyeball was performed. Results: In the control group, there were no vascular endothelial nuclei that broke through the inner limiting membrane of the retina and grew into vitreous body, or the vascular endothelial nuclei were occasionally found in only a few sections. In the model group, there were many vascular endothelial nuclei that broke through the inner limiting membrane of the retina, some appeared alone, and some appeared in clusters. At the same time, on some sections, these vascular endothelial nuclei were also found adjacent to deep retinal vessels, confirming that they originated from the retina rather than the vitreous body or other ocular tissues. In the treatment group, only a few vascular endothelial nuclei that broke through the inner limiting membrane of retina could be seen in the sections.

| SMILES | Inhibition rate (corneal neovascularization) [1] [%] | MVD (corneal microvessel density) [1] | Swelling degree ([2]; dose 2 mg/kg) [mg] | Inhibition rate (%) ([2]; dose 2 mg/kg) | Swelling degree (mg) ([2]; dose 4 mg/kg) | Inhibition rate (%) ([2]; dose 4 mg/kg) | Swelling degree (mg) ([2]; dose 8 mg/kg) | Inhibition rate (%) ([2]; dose 8 mg/kg) | Inhibition rate ([3]; dose 0.05 μM) [%] | IL-1β ([3]; dose 0.05 μM) [pg/mL] | Inhibition rate ([3]; dose 0.1 μM) [%] | IL-1β ([3]; dose 0.1 μM) [pg/mL] | Inhibition rate ([3]; dose 0.2 μM) [%] | IL-1β ([3]; dose 0.2 μM) [pg/mL] | Inhibition rate (%) (HUVECs; dose 0.05 μM) | Inhibition rate (%) (HUVECs; dose 0.1 μM) | Inhibition rate (%) (HUVECs; dose 0.2 μM) | Cell migration number (Mean ± SD) (HUVECs; dose 0.05 μM) | Cell migration number (Mean ± SD) (HUVECs; dose 0.1 μM) | Nuclei count (retinal vascular endothelial nuclei, average per section per eyeball) [4] | also measured |
| --- | --- | --- | --- | --- | --- | --- | --- | --- | --- | --- | --- | --- | --- | --- | --- | --- | --- | --- | --- | --- | --- |
| C[C@H](NC(=O)CNC(=O)[C@H](CCCNC(=N)N)NC(=O)CCCCCc1cccc(N2C(=O)C=CC2=O)c1)C(=O)N[C@@H](CC(=O)O)C(=O)N[C@@H](CCCNC(=N)N)C(=O)N[C@@H](C)C(=O)NCC(=O)NCC(=O)NCC(=O)NCC(=O)N[C@@H](CCCNC(=N)N)C(=O)NCC(=O)N[C@@H](CC(=O)O)C(=O)O [X29] (X71-RGADRAGGGGRGD-OH) | 54.98 | 30.27 ± 4.918 | 5.43 ± 0.91 | 12.84 | 4.96 ± 0.1* mg | 20.39 | 3.86 ± 0.45** mg | 38.04 | 16.20 | 788.74 ± 15.39 | 21.75 | 736.46 ± 14.72 | 40.73 | 557.81 ± 12.11 | 46.37 | 50.43 | 53.84 | 574.88 ± 55.42 | 531.34 ± 47.59 | 9.533 ± 2.225 | Cell migration number (Mean ± SD) (HUVECs; dose 0.2 μM): 494.73 ± 56.78 |
| C[C@H](NC(=O)CNC(=O)[C@H](CCCNC(=N)N)NC(=O)CCCCCCCCCCCc1cccc(N2C(=O)C=CC2=O)c1)C(=O)N[C@@H](CC(=O)O)C(=O)N[C@@H](CCCNC(=N)N)C(=O)N[C@@H](C)C(=O)NCC(=O)NCC(=O)NCC(=O)NCC(=O)N[C@@H](CCCNC(=N)N)C(=O)NCC(=O)N[C@@H](CC(=O)O)C(=O)O [X35] (X58-RGADRAGGGGRGD-OH) | 44.60 | 37.25 ± 4.806 | 5.59 ± 0.91 | 10.27 | 4.78 ± 0.64* mg | 23.27 | 3.48 ± 0.28** mg | 44.14 | 23.62 | 718.81 ± 11.53 | 30.79 | 651.42 ± 15.51 | 34.61 | 615.43 ± 17.18 | 42.61 | 50.57 | 56.96 | 615.18 ± 57.71 | 529.83 ± 68.02 | 8.544 ± 3.087 | Cell migration number (Mean ± SD) (HUVECs; dose 0.2 μM): 461.34 ± 66.82 |
| C[C@H](NC(=O)CNC(=O)[C@H](CCCNC(=N)N)NC(=O)CCCCCCCc1cccc(N2C(=O)C=CC2=O)c1)C(=O)N[C@@H](CC(=O)O)C(=O)N[C@@H](CCCNC(=N)N)C(=O)N[C@@H](C)C(=O)NCC(=O)NCC(=O)NCC(=O)NCC(=O)N[C@@H](CCCNC(=N)N)C(=O)NCC(=O)N[C@@H](CC(=O)O)C(=O)O [X31] (X66-RGADRAGGGGRGD-OH) | 45.42 | 36.70 ± 5.505 |  |  | 4.22 ± 0.51** mg | 32.26 | 5.18 ± 0.71** mg | 49.28 | 15.28 | 797.34 ± 10.46 | 18.74 | 764.81 ± 19.08 | 23.12 | 723.57 ± 18.58 | 40.18 | 46.67 | 55.21 | 641.17 ± 61.85 | 571.62 ± 42.83 | 7.228 ± 3.184 | Cell migration number (Mean ± SD) (HUVECs; dose 0.2 μM): 480.05 ± 67.72 |
| C[C@H](NC(=O)CNC(=O)[C@H](CCCNC(=N)N)NC(=O)Cc1cccc(N2C(=O)C=CC2=O)c1)C(=O)N[C@@H](CC(=O)O)C(=O)N[C@@H](CCCNC(=N)N)C(=O)N[C@@H](C)C(=O)NCC(=O)NCC(=O)NCC(=O)NCC(=O)N[C@@H](CCCNC(=N)N)C(=O)NCC(=O)N[C@@H](CC(=O)O)C(=O)O [X25] (X75-RGADRAGGGGRGD-OH) | 52.90 | 31.67 ± 6.856 | 5.62 ± 0.64 | 9.79 | 4.45 ± 0.20* mg | 28.57 | 3.3 ± 0.06** mg | 47.03 | 20.57 | 747.54 ± 18.25 | 24.22 | 713.21 ± 19.17 | 29.89 | 659.86 ± 10.24 | 48.06 | 52.24 | 58.00 | 556.73 ± 40.91 | 511.9 ± 68.58 | 8.923 ± 1.954 | Cell migration number (Mean ± SD) (HUVECs; dose 0.2 μM): 450.13 ± 52.7 |
| C[C@H](NC(=O)CNC(=O)[C@H](CCCNC(=N)N)NC(=O)CCCCCCCCCc1ccccc1N1C(=O)C=CC1=O)C(=O)N[C@@H](CC(=O)O)C(=O)N[C@@H](CCCNC(=N)N)C(=O)N[C@@H](C)C(=O)NCC(=O)NCC(=O)NCC(=O)NCC(=O)N[C@@H](CCCNC(=N)N)C(=O)NCC(=O)N[C@@H](CC(=O)O)C(=O)O [X21] (X60-RGADRAGGGGRGD-OH) | 45.93 | 36.36 ± 3.663 | 5.39 ± 0.39 | 13.48 | 4.97 ± 0.14* mg | 20.22 | 3.15 ± 0.42** mg | 49.44 | 17.80 | 773.58 ± 10.52 | 32.29 | 637.22 ± 12.95 | 44.01 | 526.94 ± 17.75 | 48.94 | 50.61 | 52.23 |  |  | 7.222 ± 3.567 |  |
